Data taken from paper PMC9603521, “WYBQ-4: a New Bactericidal Agent against Methicillin-Resistant Staphylococcus aureus” (Microbiology Spectrum, 2022).

Legend:
Assay in all cases: PBP binding, bocillin competition fluorescence gel assay
[1] = target: PBP1 (Staphylococcus aureus, UniProt Q53725); settings: dose-dependent
Description: (§1) Using the genome of S. aureus USA300 as a template, PCR was performed to amplify PBP1, PBP2, PBP3, PBP4, and PBP2a genes with primers designed according to Table 1. Then, the amplified fragments were treated with BamHI/XhoI and then inserted into the cloning site of the BamHI/XhoI-digested pET28a to yield pET28a-PBP1, pET28a-PBP2, pET28a-PBP3, pET28a-PBP4, and pET28a-PBP2a, respectively. The plasmid was transformed into E. coli BL21(DE3) and cultured in LB medium containing Kan resistance until the OD600 reached 0.6, and PBP expression was induced overnight at 16°C by adding 0.5 mM IPTG (isopropyl-β-D-thiogalactopyranoside). The bacteria were then lysed by sonication, the […] was collected, and the proteins were purified using a HIS-Select nickel affinity gel system (Beyotime, Shanghai, China).
(§2) PBP binding assays were performed as previously described ([30], [31]). Selective labeling of PBP from preincubated samples ([…] protein) with various concentrations of WYBQ-4 was performed for 15 min, and then 25 μM BOCILLIN FL (Invitrogen) was added, followed by an additional 10 min at 37°C. Proteins were separated by SDS-PAGE, and the PBPs were detected by a gel fluorescence imaging instrument (excitation, 488 nm; emission, 530 nm).

[2] = target: PBP4 (Staphylococcus aureus, UniProt P72355); settings: dose-dependent
Chain of PBP4 (P72355 25-431): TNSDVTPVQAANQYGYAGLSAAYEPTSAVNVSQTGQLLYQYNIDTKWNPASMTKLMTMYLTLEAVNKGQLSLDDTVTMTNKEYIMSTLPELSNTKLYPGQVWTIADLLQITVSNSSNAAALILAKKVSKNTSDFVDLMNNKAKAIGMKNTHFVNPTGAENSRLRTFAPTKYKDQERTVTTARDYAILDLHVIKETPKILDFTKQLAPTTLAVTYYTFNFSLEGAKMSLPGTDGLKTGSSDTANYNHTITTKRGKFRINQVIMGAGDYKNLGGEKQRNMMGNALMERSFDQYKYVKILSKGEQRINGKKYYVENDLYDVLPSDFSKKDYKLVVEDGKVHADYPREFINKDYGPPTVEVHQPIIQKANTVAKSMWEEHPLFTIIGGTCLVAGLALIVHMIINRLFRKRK
Description: as §1, §2

[3] = target: PBP2 (Staphylococcus aureus, UniProt Q9R744)
Chain of PBP2 (Q9R744 1-727): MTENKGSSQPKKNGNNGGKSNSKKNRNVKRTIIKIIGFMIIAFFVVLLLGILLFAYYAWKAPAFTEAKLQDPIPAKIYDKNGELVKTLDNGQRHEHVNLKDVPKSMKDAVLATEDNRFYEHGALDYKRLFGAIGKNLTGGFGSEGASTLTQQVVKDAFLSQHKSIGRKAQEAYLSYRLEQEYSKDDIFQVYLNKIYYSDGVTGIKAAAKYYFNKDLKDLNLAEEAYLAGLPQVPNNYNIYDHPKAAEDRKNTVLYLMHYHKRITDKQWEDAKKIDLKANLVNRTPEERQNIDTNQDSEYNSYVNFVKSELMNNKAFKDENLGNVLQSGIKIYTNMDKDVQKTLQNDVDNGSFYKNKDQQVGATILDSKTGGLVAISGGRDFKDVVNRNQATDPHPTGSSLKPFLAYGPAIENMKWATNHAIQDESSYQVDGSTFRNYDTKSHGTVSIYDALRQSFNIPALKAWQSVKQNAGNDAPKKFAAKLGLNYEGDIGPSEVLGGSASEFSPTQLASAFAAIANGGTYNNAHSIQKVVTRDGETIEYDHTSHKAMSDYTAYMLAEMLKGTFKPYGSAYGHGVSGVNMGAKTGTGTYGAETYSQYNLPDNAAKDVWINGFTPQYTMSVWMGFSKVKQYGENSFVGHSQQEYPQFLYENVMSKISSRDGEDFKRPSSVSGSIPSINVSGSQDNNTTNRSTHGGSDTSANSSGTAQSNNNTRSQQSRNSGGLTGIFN
Description: as §1, §2

[4] = target: PBP3 (Staphylococcus aureus, UniProt Q9XDB3); settings: dose-dependent
Chain of PBP3 (Q9XDB3 1-691): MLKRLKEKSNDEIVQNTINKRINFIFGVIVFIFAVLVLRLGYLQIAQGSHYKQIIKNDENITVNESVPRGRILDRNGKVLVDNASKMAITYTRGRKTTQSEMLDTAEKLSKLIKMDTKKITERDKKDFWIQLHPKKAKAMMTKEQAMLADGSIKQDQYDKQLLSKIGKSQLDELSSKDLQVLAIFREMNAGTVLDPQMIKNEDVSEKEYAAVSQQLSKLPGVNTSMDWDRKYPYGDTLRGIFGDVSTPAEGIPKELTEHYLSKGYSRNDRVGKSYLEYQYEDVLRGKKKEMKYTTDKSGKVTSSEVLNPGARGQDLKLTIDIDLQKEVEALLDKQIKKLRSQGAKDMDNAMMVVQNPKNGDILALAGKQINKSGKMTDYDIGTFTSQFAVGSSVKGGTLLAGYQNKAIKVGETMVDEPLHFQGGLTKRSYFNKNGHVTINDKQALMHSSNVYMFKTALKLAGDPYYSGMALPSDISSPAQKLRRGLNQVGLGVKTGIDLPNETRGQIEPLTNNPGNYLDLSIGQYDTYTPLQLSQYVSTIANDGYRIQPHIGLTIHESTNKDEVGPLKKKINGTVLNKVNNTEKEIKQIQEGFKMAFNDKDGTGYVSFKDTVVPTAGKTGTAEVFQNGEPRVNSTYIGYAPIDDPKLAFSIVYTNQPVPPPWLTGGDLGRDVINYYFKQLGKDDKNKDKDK
Description: as §1, §2

[5] = target: PBP2a (Staphylococcus aureus, UniProt Q53707)
Chain of PBP2a (Q53707 entry or part of it): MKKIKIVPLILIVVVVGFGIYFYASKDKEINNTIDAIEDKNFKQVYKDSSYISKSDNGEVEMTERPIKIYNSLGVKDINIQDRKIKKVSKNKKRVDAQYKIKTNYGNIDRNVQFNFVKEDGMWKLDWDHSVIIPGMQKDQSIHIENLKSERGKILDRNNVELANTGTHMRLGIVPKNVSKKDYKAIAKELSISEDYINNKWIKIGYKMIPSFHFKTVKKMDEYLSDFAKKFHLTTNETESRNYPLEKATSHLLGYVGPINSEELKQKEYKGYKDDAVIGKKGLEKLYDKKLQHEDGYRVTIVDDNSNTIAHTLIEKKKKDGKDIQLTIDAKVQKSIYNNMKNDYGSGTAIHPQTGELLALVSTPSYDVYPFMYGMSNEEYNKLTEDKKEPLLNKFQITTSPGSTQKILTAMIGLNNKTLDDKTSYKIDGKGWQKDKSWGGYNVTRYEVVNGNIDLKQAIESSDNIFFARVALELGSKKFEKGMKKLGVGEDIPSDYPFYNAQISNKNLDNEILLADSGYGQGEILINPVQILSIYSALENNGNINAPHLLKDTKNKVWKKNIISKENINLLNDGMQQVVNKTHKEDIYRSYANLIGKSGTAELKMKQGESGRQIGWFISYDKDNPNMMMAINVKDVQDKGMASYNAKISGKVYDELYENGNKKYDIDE
Description: as §1, §2

Chain of PBP1 (Q53725 1-744): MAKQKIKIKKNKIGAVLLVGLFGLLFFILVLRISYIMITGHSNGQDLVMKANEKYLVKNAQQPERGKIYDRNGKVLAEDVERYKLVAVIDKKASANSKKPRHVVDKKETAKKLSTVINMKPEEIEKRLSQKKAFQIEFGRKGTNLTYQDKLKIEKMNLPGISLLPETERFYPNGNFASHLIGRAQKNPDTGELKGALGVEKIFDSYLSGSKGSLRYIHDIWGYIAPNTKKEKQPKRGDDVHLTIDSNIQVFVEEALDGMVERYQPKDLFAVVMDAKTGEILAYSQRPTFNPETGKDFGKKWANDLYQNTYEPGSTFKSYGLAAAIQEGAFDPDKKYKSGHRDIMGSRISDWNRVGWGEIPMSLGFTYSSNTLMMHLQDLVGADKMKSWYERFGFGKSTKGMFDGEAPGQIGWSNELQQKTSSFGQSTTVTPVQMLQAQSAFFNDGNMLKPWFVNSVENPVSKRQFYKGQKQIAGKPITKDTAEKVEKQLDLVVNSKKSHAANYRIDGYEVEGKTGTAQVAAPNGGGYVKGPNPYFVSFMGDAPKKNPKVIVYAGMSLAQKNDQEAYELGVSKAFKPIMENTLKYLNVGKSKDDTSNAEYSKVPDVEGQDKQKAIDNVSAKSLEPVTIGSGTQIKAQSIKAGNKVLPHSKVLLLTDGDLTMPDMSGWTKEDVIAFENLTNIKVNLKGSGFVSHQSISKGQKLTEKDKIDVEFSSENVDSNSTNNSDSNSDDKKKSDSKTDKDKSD

**Q.** How did the “affinity for PBP1 (bocillin competition)” value [1] turn out when C#CCO[C@@]1(NC(=O)CSc2cccc(C)c2)C(=O)N2C(C(=O)O)=C(CSc3nnnn3C)CSC21 (stereo partly drawn) [WYBQ-4] was run?
**A.** had an affinity

**Q.** And the “affinity for PBP4 (bocillin competition)” value [2]?
**A.** had an affinity

**Q.** What about the “concentration at which bocillin fluorescence disappeared completely” value [3] of the same molecule?
**A.** 0.25 µg/mL

**Q.** What about the “affinity for PBP3 (bocillin competition)” value [4] of the same molecule?
**A.** had an affinity

**Q.** And the IC50 [5]?
**A.** 3.66 µM

**Q.** What about the “concentration that completely competed for the binding of bocillin” value ([5]; PBP2a) of the same molecule?
**A.** 2 µg/mL
